The values below come from US9850227B2 (YUHAN CORPORATION, priority 2011, dated 2017).

The target in this test is T1, human 5-HT4(a) (Homo sapiens, UniProt Q13639).
T1 construct: host or cells: GeneBIAzer HTR4-CRE-bla CHO-K1 cells
In words: Evaluation of agonistic activity in CHO-K1 cells expressing human 5-HT4(a) (GeneBIAzer HTR4-CRE-bla CHO-K1 cells, beta-lactamase fluorescence ratio, EC50 from 8 concentrations). Type of test: cell-based. An outline of the steps:
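HTR4-CRE-bla CHO-K1 cells (10^4 per well, overnight in 1% FBS medium) exposed to compound for 5 h, then beta-lactamase substrate 2 h in the dark. Fluorescence ratio at 465/535 nm after 410 nm excitation; EC50 by non-linear regression over 8 concentrations.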

Each structure is given as a SMILES string.

In general, EC50 refers to the concentration that produces a half-maximal response.

T1 sequence (Q13639 1-387 isoform Q13639-2): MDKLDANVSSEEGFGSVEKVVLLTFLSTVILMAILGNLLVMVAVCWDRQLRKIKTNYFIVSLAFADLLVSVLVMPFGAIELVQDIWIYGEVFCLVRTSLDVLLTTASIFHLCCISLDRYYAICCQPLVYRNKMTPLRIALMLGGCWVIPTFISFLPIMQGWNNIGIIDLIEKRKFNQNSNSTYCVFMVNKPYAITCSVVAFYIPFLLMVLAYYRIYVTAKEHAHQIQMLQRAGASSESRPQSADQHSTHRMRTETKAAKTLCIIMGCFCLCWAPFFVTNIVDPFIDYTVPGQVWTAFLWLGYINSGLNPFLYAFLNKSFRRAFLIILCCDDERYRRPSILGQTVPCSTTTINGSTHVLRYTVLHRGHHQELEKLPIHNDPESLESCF

With `CCCc1cc(N2CCCCC2CC)nc(Nc2cccc([N+](=O)[O-])c2)n1` (stereo not shown) [Example 99, 4-(2-ethylpiperidin-1-yl)-N-(3-nitrophenyl)-6-propylpyrimidin-2-amine], the EC50 is 370 pM. As for `CCCc1cc(N2CCC[C@@H](NCCCSC)C2)nc(Nc2ccc(C)c(C#N)c2)n1` [Example 216, (R)-2-methyl-5-{4-[3-(3-methylthiopropylamino)piperidin-1-yl]-6-propylpyrimidin-2-ylamino}benzonitrile], the EC50 was 16 pM. For `CCCc1cc(N2CCCCC2CC)nc(Nc2ccc3cc[nH]c3c2)n1` (stereo not shown) [Example 78, N-[4-(2-ethylpiperidin-1-yl)-6-propylpyrimidin-2-yl]-1H-indol-6-amine] the value was 120 pM.

For `CCCc1cc(N2CCCC3CCCCC32)nc(Nc2ccc3[nH]c(C(F)(F)F)nc3c2)n1` (stereo not shown) [Example 200, N-[4-(octahydroquinolin-1(2H)-yl)-6-propylpyrimidin-2-yl]-2-(trifluoromethyl)-1H-benzo[d]imidazol-5-amine], the concentration giving a half-maximal response (EC50) came to 180 pM. As to `CCCc1cc(N2CCNC[C@H]2C)nc(Nc2ccc(N)c(C#N)c2)n1` [Example 127, (R)-2-amino-5-[4-(2-methylpiperazin-1-yl)-6-propylpyrimidin-2-ylamino]benzonitrile], the EC50 was 53 pM.

Regarding `CCCc1cc(N2CCC[C@@H](N)C2)nc(Nc2cc(N)cc(C#N)c2)n1` [Example 260, (R)-3-amino-5-{[4-(3-aminopiperidin-1-yl)-6-propylpyrimidin-2-yl]amino}benzonitrile], the EC50 was determined as 7.5 pM. Regarding `CCCc1cc(N2CCCC3CCCCC32)nc(Nc2cccc(C#N)c2)n1` (stereo not shown) [Example 187, 3-[4-(octahydroquinolin-1(2H)-yl)-6-propylpyrimidin-2-ylamino]benzonitrile], the concentration giving a half-maximal response (EC50) is 240 pM. For `CCCc1cc(N2CCCCC2CCO)nc(Nc2ccc(F)c(N)c2)n1` (stereo not shown) [Example 181, 2-{1-[2-(3-amino-4-fluorophenylamino)-6-propylpyrimidin-4-yl]piperidin-2-yl}ethanol] the value was 25 pM; for `CCCc1cc(N2CCCCC2)nc(Nc2ccc3cc[nH]c3c2)n1` [Example 76, N-[4-(piperidin-1-yl)-6-propylpyrimidin-2-yl]-1H-indol-6-amine], 61 pM; for `CCCc1cc(N2CCCCC2CC)nc(Nc2cnc3ccccc3c2)n1` (stereo not shown) [Example 114, N-[4-(2-ethylpiperidin-1-yl)-6-propylpyrimidin-2-yl]quinolin-3-amine], 310 pM. In the case of `CCCc1cc(N2CCC[C@@H](NC(=O)CO)C2)nc(Nc2ccc(F)c(C(F)(F)F)c2)n1` [Example 249, (R)—N-(1-{2-[4-fluoro-3-(trifluoromethyl)phenylamino]-6-propylpyrimidin-4-yl}piperidin-3-yl)-2-hydroxyacetamide], the concentration giving a half-maximal response (EC50) is 25 pM. Under `CCCc1cc(N2CCCC3CCCCC32)nc(Nc2cccc([N+](=O)[O-])c2)n1` (stereo not shown) [Example 188, N-(3-nitrophenyl)-4-(octahydroquinolin-1(2H)-yl)-6-propylpyrimidin-2-amine] stands 430 pM; under `CCCc1cc(N2CCC[C@@H](NC)C2)nc(Nc2ccc(N)c(C#N)c2)n1` [Example 308, (R)-2-amino-5-({4-[3-(methylamino)piperidin-1-yl]-6-propylpyrimidin-2-yl}amino)benzonitrile], 13 pM.
